Two compounds from US20050267085A1, “Combined therapy for the treatment of Parkinson's disease” (UNIVERSITE LAVAL, priority 2004, published 2005) can be followed below.

The test system of assay [1] is hemiparkinsonian MPTP-monkeys. Kind of assay: Ipsilateral and contralateral circling behavior in hemiparkinsonian MPTP-monkeys. Type of assay: in vivo, macaca fasicularis. The procedure: (§1) Six hemiparkinsonian ovariectomized female macaca fasicularis monkeys weighing 2.8-6.5 kg were used in this experiment. During induction of the parkinsonian syndrome, they received 1-methyl-4-phenyl-1,2,3,6-tetrahydropyridine (MPTP, 3 mg) via an Alzet pump during a period of 1-2 weeks according to the monkey. The procedure consisted of putting the pump in the left substantia nigra and the MPTP infused lesioned the dopaminergic cells. The animals were used at least 5 months after the induction of their hemiparkinsonian state at which time they had stabilized. For a further experimentation, 6 bilaterally-lesioned parkinsonian macaca fasicularis monkeys were used. The induction of the parkinsonian syndrome was performed according to the above-described methodology, except that the Alzet pump was installed so as to lesion dopaminergic cells of the substantia nigra in both brain hemispheres.
(§2) To determine the effect of levodopa, DHEA or combination thereof on parkinsonian monkeys, ipsilateral and contralateral circling was monitored in hemiparkinsonian monkeys while Parkinsonian score was determined in bilaterally-lesion parkinsonian monkeys. Hemiparkinsonian monkeys turn towards the ipsilateral side of the lesion (to the left) under basal conditions and upon dopaminergic stimulation this circling changes for the contralateral side (to the right). Parkinsonian score was determined in bilaterally-lesion parkinsonian monkeys according to the method known in the art. All received the same treatments and were their own controls. Monkeys were first treated with levodopa for priming until a stable antiparkinsonian behavior was observed. During the investigation of DHEA administered alone, priming of the monkeys was continued with administration of levodopa/benserazide (50/12.5 mg) given twice weekly. DHEA treatments were started on the third day after the last levodopa dose.
(§3) DHEA was administered at different doses (1, 5, and 15 mg/kg) by nasogastric gavage (n.g.) alone and in combination (DHEA: 1, 5, 10 and 15 mg/kg n.g.) with a s.c. T.L-Dopa. Threshold doses of levodopa, that is the minimal dose to obtain contralateral circling were sought for each of the MPTP-monkeys and varied from one monkey to another from 3 to 8 mg/kg (3, 4, 4.5, 5, 5, and 8 mg/kg). Higher doses of DHEA (25-100 mg/kg) alone or with T.L-Dopa were also tested in a similar paradigm.
Treatments were administered in the morning and each animal was recorded via a video camera system. Duration of locomotor activation lasted for 90 min for all hemiparkinsonian animals and treatments. […] Each treatment was repeated 2-3 times and averaged for each monkey.
Experimental data was compared using an ANOVA for repeated measures followed by post-hoc pair wise comparisons with Fisher's probability of least significant difference test (PLSD). A p<0.05 was required for the results to be considered statistically significant. Statistical comparison of square root transformation of the data was used to stabilize variance when required (D. C. Montgomery (1991) Third Edition, Design and analysis of experiments. ed. Whileys and Sons pp. 216).

The subject of assay [2] is bilaterally-lesioned parkinsonian MPTP-monkeys. Kind of assay: Parkinsonian score and duration of levodopa effect in bilaterally-lesioned parkinsonian MPTP-monkeys. Type of assay: in vivo, macaca fasicularis. The procedure:
as §1, §2, §3
Experimental data was compared using an ANOVA for repeated measures followed by post-hoc pair wise comparisons with Fisher's probability of least significant difference test (PLSD). A p<0.05 was required for the results to be considered statistically significant. […]

Where [3] appears, read: DHEA 1 mg/kg n.g. added to threshold dose s.c. T.L-Dopa, compared to saline or T.L-Dopa alone.
Where [4] appears, read: DHEA 5, 10 and 15 mg/kg n.g. combined with T.L-Dopa, compared to saline.
The mark [5] stands for this setting: threshold dose of levodopa alone.

In the case of `C[C@]12CC[C@H](O)CC1=CC[C@@H]1[C@@H]2CC[C@]2(C)C(=O)CC[C@@H]12` [DHEA, Dehydroepiandrosterone], the “contralateral circling (mean/30 min)” value was “significantly increased” in assay [1] (setting [3]); “significantly increased” in assay [1] (setting [4]); “significantly and similarly increased” in assay [1] (DHEA alone 1-15 mg/kg n.g., compared to saline treatment). For the same compound, the levodopa-induced locomotor activity result in assay [1] (DHEA added to minimal threshold doses of levodopa) was “potentiates”. Besides, the ipsilateral circling entry in assay [1] (DHEA alone or DHEA combined to T.L-Dopa, versus basal conditions or saline) is “decreased”. Also, in assay [1] (DHEA alone or combined with levodopa), the “dose-response on circling behavior” value is on record as “did not produce a significant dose-response”. Moreover, in assay [1] (DHEA alone, n.g.), the “Duration of the DHEA effect” value is 90 min. Moreover, the “effect on levodopa-induced change in ipsilateral, contralateral and ipsilateral-contralateral circling” value in assay [1] (optimal dose of DHEA for each monkey combined with threshold levodopa) is “significantly potentiated”. Besides, the Parkinsonian score result in assay [2] (setting [3]) is recorded as “decreased”; in assay [2] (setting [4]) it was “reduced”; in assay [2] (DHEA alone at different doses, n.g.), “reduce”. In assay [2] (DHEA 1 and 5 mg/kg with threshold dose of levodopa, versus levodopa alone), the “increase of duration of levodopa effect” value is on record as “approximately 40%”.

Take `N[C@@H](Cc1ccc(O)c(O)c1)C(=O)O` [Levodopa, L-3,4-dihydroxyphenylalanine]: in assay [1] (setting [5]), the contralateral circling result is given as “increased”, the ipsilateral circling entry was “decreased” and the overall ipsilateral-contralateral circling result is given as “reducing”.
